Values after ≈ are worked out from the molar mass of the structure shown.

Test in all cases: Microtitre plate assay, IC90 determination
What all share (format): cell-based

The subject of assay [1] is Streptococcus pneumoniae (ATCC6305). The settings on record: 90% inhibitory concentration for bacterial growth, 37° C., resazurin fluorescence, read-out: IC90 (μg/ml) SPN 6305. Put shortly:
(§1)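 Bacteria grown overnight in Mueller-Hinton broth at 37° C were added at about 10 to 60 CFU per well to serial five-fold compound dilutions in water with 0.25% BSA and incubated 24 hours at 37° C. Growth was read by resazurin fluorescence (ex 530/em 590 nm); IC90 in μg/ml.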

Assay [2] concerns Enterococcus faecalis (ATCC29212). The settings on record: 90% inhibitory concentration for bacterial growth, 37° C., resazurin fluorescence, read-out: IC90 (μg/ml) EFA 29212. An outline of the steps: as §1
Assay [3] relates to Staphylococcus aureus (ATCC25923). The settings on record: 90% inhibitory concentration for bacterial growth, 37° C., resazurin fluorescence, read-out: IC90 (μg/ml) STA 25923. Put shortly:
as §1

The subject of assay [4] is Staphylococcus aureus (ATCC29213). The settings on record: 90% inhibitory concentration for bacterial growth, 37° C., resazurin fluorescence, read-out: IC90 (μg/ml) STA 29213. Put shortly: as §1
Assay [5] deals with Streptococcus mutans (ATCC33402). The note with it: 90% inhibitory concentration for bacterial growth, 37° C., resazurin fluorescence, read-out: IC90 (μg/ml) SMU 33402. Put shortly:
as §1

The subject of assay [6] is methicilline resistant Staphylococcus aureus (MRSA) (a clinical isolate from the University of Antwerp). The note with it: 90% inhibitory concentration for bacterial growth, 37° C., resazurin fluorescence, read-out: IC90 (μg/ml) STA RMETHIC. An outline of the steps: as §1
Assay [7] relates to Pseudomonas aeruginosa (ATCC27853). The note with it: 90% inhibitory concentration for bacterial growth, 37° C., resazurin fluorescence, read-out: IC90 (μg/ml) PAE 27853. An outline of the steps: as §1
Assay [8] deals with Enterococcus faecalis (ATCC14506). The settings on record: 90% inhibitory concentration for bacterial growth, 37° C., resazurin fluorescence, read-out: IC90 (μg/ml) EFA 14506. Put shortly: as §1
For assay [9], the system named is Streptococcus pyogens (ATCC8668). The note with it: 90% inhibitory concentration for bacterial growth, 37° C., resazurin fluorescence, read-out: IC90 (μg/ml) SPY 8668. An outline of the steps:
as §1

Assay [10] relates to Staphylococcus aureus (ATCC43300). The note with it: 90% inhibitory concentration for bacterial growth, 37° C., resazurin fluorescence, read-out: IC90 (μg/ml) STA 43300. An outline of the steps: as §1
Assay [11] relates to Bacillus subtilis (ATCC43639). The note with it: 90% inhibitory concentration for bacterial growth, 37° C., resazurin fluorescence, read-out: IC90 (μg/ml) BSU 43639. Put shortly:
as §1

Assay [12] has as its system Listeria monocytogenes (ATCC49594). The note with it: 90% inhibitory concentration for bacterial growth, 37° C., resazurin fluorescence, read-out: IC90 (μg/ml) LMO 49594. Put shortly:
as §1

The subject of assay [13] is Escherichia coli (ATCC35218). The settings on record: 90% inhibitory concentration for bacterial growth, 37° C., resazurin fluorescence, read-out: IC90 (μg/ml) ECO 35218. An outline of the steps: as §1
For assay [14], the system named is Escherichia coli (ATCC1403). The settings on record: 90% inhibitory concentration for bacterial growth, 37° C., resazurin fluorescence, read-out: IC90 (μg/ml) ECO 1403. Put shortly:
as §1

Assay [15] deals with Escherichia coli (ATCC25922). The note with it: 90% inhibitory concentration for bacterial growth, 37° C., resazurin fluorescence, read-out: IC90 (μg/ml) ECO 25922. Put shortly: as §1

Turning to `COc1nc2c(C(O)(CCN(C)C)c3cc(F)cc(F)c3)cc(Br)cc2cc1Cc1ccccc1` (stereo not shown) [Compound 12], the IC90 amounted to 12.1 µg/mL (≈ 22.3 µM) in assay [1]; 13.6 µg/mL (≈ 25.1 µM) in [2]; 12.1 µg/mL (≈ 22.3 µM) in [3]; 10.8 µg/mL (≈ 19.9 µM) in [4]; 10.8 µg/mL (≈ 19.9 µM) in assay [5]; 12.1 µg/mL (≈ 22.3 µM) in assay [6]. For the same compound, the IC90 in assay [7] turned out to be 10.8 µg/mL (≈ 19.9 µM); in assay [8], 10.8 µg/mL (≈ 19.9 µM); in assay [9] it was 10.8 µg/mL (≈ 19.9 µM); in assay [10] it was 10.8 µg/mL (≈ 19.9 µM); in assay [11], 13.6 µg/mL (≈ 25.1 µM); in assay [12], 13.6 µg/mL (≈ 25.1 µM).

`CN(C)CCC(O)(c1cccs1)c1cc(Br)cc2cc(Cc3ccccc3)c(N3CCN(C)CC3)nc12` (stereo not shown) [Compound 20]: the IC90 was found to be 14.6 µg/mL (≈ 25.2 µM) in assay [1]; 14.6 µg/mL (≈ 25.2 µM) in assay [2]; 13 µg/mL (≈ 22.4 µM) in assay [3]; 11.6 µg/mL (≈ 20 µM) in assay [4]; 11.6 µg/mL (≈ 20 µM) in [13]; 14.6 µg/mL (≈ 25.2 µM) in assay [5]. For the same compound, the IC90 is 46 µg/mL (≈ 79.4 µM) in assay [6]; 14.6 µg/mL (≈ 25.2 µM) in [7]; 13 µg/mL (≈ 22.4 µM) in [14]; 11.6 µg/mL (≈ 20 µM) in [9]; 14.6 µg/mL (≈ 25.2 µM) in assay [15]; 14.6 µg/mL (≈ 25.2 µM) in assay [11]. The IC90 in [12] turned out to be 14.6 µg/mL (≈ 25.2 µM).

Turning to `CN(C)CCC(O)(c1cccs1)c1cc(Br)cc2cc(Cc3ccccc3)c(N(C)C)nc12` (stereo not shown) [Compound 46], the IC90 in [1] worked out at 10.5 µg/mL (≈ 20 µM); in assay [2], 10.5 µg/mL (≈ 20 µM); in assay [3], 11.7 µg/mL (≈ 22.3 µM); in assay [4] it was 10.5 µg/mL (≈ 20 µM); in [5], 10.5 µg/mL (≈ 20 µM); in assay [6], 9.3 µg/mL (≈ 17.7 µM). Besides, the IC90 in assay [7], in assay [8], in [9], in [10], in assay [11] and in assay [12] was 10.5 µg/mL (≈ 20 µM) in each case.

Consider `CN(C)CCOc1nc2c(C(O)(CCN(C)C)c3ccccc3)cc(Br)cc2cc1Cc1ccccc1` (stereo not shown) [Compound 49], for which the IC90 was determined as 56.3 µg/mL (≈ 100 µM) in assay [1]; 56.3 µg/mL (≈ 100 µM) in assay [2]; 56.3 µg/mL (≈ 100 µM) in assay [3]; 44.7 µg/mL (≈ 79.5 µM) in assay [4]; 44.7 µg/mL (≈ 79.5 µM) in assay [5]; 56.3 µg/mL (≈ 100 µM) in assay [6]. In addition, the IC90 was 56.3 µg/mL (≈ 100 µM) in [7]; 22.4 µg/mL (≈ 39.8 µM) in assay [9]; 56.3 µg/mL (≈ 100 µM) in [15]; 56.3 µg/mL (≈ 100 µM) in assay [11]; 56.3 µg/mL (≈ 100 µM) in [12].

`CN(C)CCC(O)(c1ccccc1)c1cc(Br)cc2cc(Cc3ccccc3)c(NCCC(c3ccccc3)c3ccccc3)nc12` (stereo not shown) [Compound 59]: the IC90 in [1] worked out at 17.2 µg/mL (≈ 25.1 µM); in assay [2], 17.2 µg/mL (≈ 25.1 µM); in assay [3], 54.4 µg/mL (≈ 79.4 µM); in assay [4], 15.3 µg/mL (≈ 22.3 µM); in assay [13], 15.3 µg/mL (≈ 22.3 µM); in assay [5], 15.3 µg/mL (≈ 22.3 µM). Further, the IC90 in [6] was 54.4 µg/mL (≈ 79.4 µM); in [7] it was 17.2 µg/mL (≈ 25.1 µM); in [8], 54.4 µg/mL (≈ 79.4 µM); in assay [9] it was 15.3 µg/mL (≈ 22.3 µM); in assay [10], 17.2 µg/mL (≈ 25.1 µM); in assay [11], 10.9 µg/mL (≈ 15.9 µM). Besides, the IC90 in assay [12] is 10.9 µg/mL (≈ 15.9 µM).

The values are drawn from patent publication US8017606B2, “Quinoline derivatives as antibacterial agents” (Janssen Pharmaceutica NV, priority 2005, dated 2011).
